Reference: patent US9815788B2, “Anti-angiogenic compounds” (University College Dublin National University of Ireland, …, priority 2012, dated 2017)
Where a name gives a salt, the structure may show the parent alone.

Assays:
Format in all cases: cell-based, human
[1] = tested on: OE33R radio-resistant oesophageal adenocarcinoma cells; test: Cell number after 24 hours drug treatment (crystal violet absorbance), OE33R; settings: 10 μM
Method: (§1) OE33P radio-sensitive and OE33R radio-resistant oesophageal adenocarcinoma cells were used to test the effects of the compounds 11B HCl, […], 11B CC16 HCl, 11B 471 and 11B 268 on cell number. Cells were maintained in RPMI media supplemented with 10% foetal calf serum, penicillin (100 U/ml) and streptomycin (100 gig/ml). A total of 11.000 or 13,000 cells, in 100 μl media, were seeded per well in 24 well plates and left to incubate for 24 hours, with an additional 150 μl media added after 5 hours. The media was replaced with solutions containing 10 μM of 11B HCl, 11B CC11 HCl, 11B CC16 HCl, 11B 471, 11B 268 or fresh media as a control. Each drug had 6 replicates. After 24 hours of treatment, the cells were fixed with 1% glutaraldehyde for 15 minutes and then stained with crystal violet for 30 minutes. The plates were blotted and dried overnight. The cells were resuspended with 1% TritonX-100 and shaken for 15 minutes. The absorbance was read on a spectrophotometer at 590 nm.
(§2) OE33P radiosensitive and OE33R radioresistant cells were used to test the effects of the compound 11B_Z_HCl on toxicity. Cells were maintained in RPMI media supplemented with 10% foetal calf serum, penicillin (100 U/ml) and streptomycin (100 μg/ml). A total of 11,000 cells, in 100 μl media, were seeded per well in 24 well plates and left to incubate for 24 hours, with an additional 150 μl media added after 5 hours. The media was replaced with solutions containing 10 μM of 11B_Z_HCl or fresh media as a control. Each treatment had 6 replicates. After 24 hours of treatment, the cells were fixed with 1% glutaraldehyde for 15 minutes and then stained with crystal violet for 30 minutes. The plates were blotted and dried overnight. The cells were resuspended with 1% TritonX-100 and shaken for 15 minutes. The absorbance was read on a spectrophotometer at 590 nm.

[2] = tested on: OE33P radio-sensitive oesophageal adenocarcinoma cells; test: Cell number after 24 hours drug treatment (crystal violet absorbance), OE33P; settings: 10 μM
Method: as §1, §2

[3] = tested on: RAD51L3, MMS19, SMUG1, PARP1 and MLH1 in OE33R cells; test: Gene expression of DNA repair proteins (qPCR), OE33R; settings: 10 μM, 24 hours, reduction of RAD51L3, MMS19, PARP1 and MLH1
Method: (§3) O[…] radiosensitive and O[…] radioresistant oesophageal adenocarcinoma cells were used to test the effects of the above compounds on the gene expression of DNA repair proteins. Cells were maintained in RPMI media supplemented with 10% foetal calf serum, penicillin (100 U/ml) and streptomycin (100 μg/ml). Cells were seeded in 6 well plates and left to incubate for 24 hours. Cells were treated 10 μM of the above compounds or fresh media as a control. After 24 hours of treatment, RNA and cDNA was isolated and qPCR performed using primer probes to the following primer probes to RAD51L3, MMS19, SMUG1, PARP1 and MLH1. O[…] radiosensitive and O[…] radioresistant oesophageal adenocarcinoma cells were used to test the effects of compounds 11B HCl, 11B_CC11_HCl and 11B_Z_HCL on the gene expression of DNA repair proteins. Cells were maintained in RPMI media supplemented with 10% foetal calf serum, penicillin (100 U/ml) and streptomycin (100 μg/ml). Cells were seeded in 6 well plates and left to incubate for 24 hours. Cells were treated 10 μM of the above compounds or fresh media as a control. After 24 hours of treatment, RNA and cDNA was isolated and qPCR performed using primer probes to the following primer probes to RAD51L3, MMS19, SMUG1, PARP1 and MLH1.

[4] = tested on: RAD51L3, MMS19, SMUG1, PARP1 and MLH1 in OE33P cells; test: Gene expression of DNA repair proteins (qPCR), OE33P; settings: 10 μM, 24 hours, reductions of RAD51L3, MMS19, SMUG1 and PARP1
Method: as §3

[5] = tested on: OE33R radio-resistant oesophageal adenocarcinoma cells; test: Quantification of oxidative phosphorylation (OCR, Seahorse), OE33R; settings: 10 μM, 24 hours
Method: (§4) OE33P radiosensitive and OE33R radio-resistant oesophageal adenocarcinoma cells were used to test the effects of the compounds 11B HCl, 11B CC11 HCl, 11B CC16 HCl, 11B 471 and 11B 268 on oxidative phosphorylation. Cells were maintained in RPMI media supplemented with 10% foetal calf serum, penicillin (100 U/ml) and streptomycin (100 μg/ml). A total of 11,000-13,000 cells, in 100 μl media, were seeded per well in 24 well plates and left to incubate for 24 hours, with an additional 150 μl media added after 5 hours. The media was replaced with solutions containing 10 μM of 11B HCl, 11B CC11 HCl, 11B CC16 HCl, 11B 471, 11B 268 or fresh media as a control. Each drug had 6 replicates. After 24 hours of treatment, media was replaced with modified DMEM supplemented with 0.5 mM glucose. Rates of oxidative phosphorylation were determined using Seahorse Biosciences metabolism technology. The media was disposed and the cells washed with PBS. The cells were fixed with 1% glutaraldehyde for 15 minutes and then stained with crystal violet for 30 minutes. The plates were blotted and dried overnight. The cells were resuspended with 1% TritonX-100 and shaken for 15 minutes. The absorbance was read on a spectrophotometer at 595 nm. Rates of oxidative phosphorylation were then normalised to cell number.
OE33P radiosensitive and OE33R radioresistant oesophageal adenocarcinoma cells were used to test the effects of the compound 11B_Z_HCl on oxidative phosphorylation. Cells were maintained in RPMI media supplemented with 10%0/foetal calf serum, penicillin […]) and streptomycin (100 μg/ml). A total of 11,000 cells, in 100 μl media, were seeded per well in 24 well plates and left to incubate for 24 hours, with an additional 150 μl media added after 5 hours. The media was replaced with solutions containing 10 μM of 11B_Z_HCl or fresh media as a control. Each treatment had 6 replicates. After 24 hours of treatment, media was replaced with modified DMEM supplemented with 0.5 mM glucose. Rates of oxidative phosphorylation were determined using Seahorse Biosciences metabolism technology. […]

[6] = tested on: OE33P radiosensitive oesophageal adenocarcinoma cells; test: Quantification of oxidative phosphorylation (OCR, Seahorse), OE33P; settings: 10 μM, 24 hours
Method: as §4
OE33P radiosensitive and OE33R radioresistant oesophageal adenocarcinoma cells were used to test the effects of the compound 11B_Z_HCl on oxidative phosphorylation. Cells were maintained in RPMI media supplemented with 10%0/foetal calf serum, penicillin […]) and streptomycin (100 μg/ml). A total of 11,000 cells, in 100 μl media, were seeded per well in 24 well plates and left to incubate for 24 hours, with an additional 150 μl media added after 5 hours. The media was replaced with solutions containing 10 μM of 11B_Z_HCl or fresh media as a control. Each treatment had 6 replicates. After 24 hours of treatment, media was replaced with modified DMEM supplemented with 0.5 mM glucose. Rates of oxidative phosphorylation were determined using Seahorse Biosciences metabolism technology. Rates of oxidative phosphorylation were then normalised to cell number.

How did the “cell number, measured by % absorbance” value [1] turn out when `Oc1ccccc1/C=C/c1ccc2ccccc2n1` [11B HCl] was run?
Its value is “did not significantly reduce cell number”.

What about the “cell number, measured by % absorbance” value [2] of the same molecule?
Its value is “did not significantly reduce cell number”.

What about the “expression of DNA repair genes” value [3] of the same molecule?
The value was “Reduction”.

And the “expression of DNA repair genes” value [4]?
Its value is “Reduction”.

What about the “oxygen consumption rate (OCR), a measure of oxidative phosphorylation” value (shortened to “oxygen consumption rate (OCR), a measure”) [5] of the same molecule?
The value was “significantly reduce”.

What about the “oxygen consumption rate (OCR), a measure” value [6] of the same molecule?
The value was “significantly reduce”.

With `C/C(=C\c1ccccc1O)c1ccc2ccccc2n1.Cl` [Compound 11B_CC11_HCl, (E)-2-(2-Quinolin-2-yl-propenyl)-phenol HCl salt] as the molecule, how does the “cell number, measured by % absorbance” value [1] read?
Its value is “did not significantly reduce cell number”.

And the “cell number, measured by % absorbance” value [2]?
Its value is “did not significantly reduce cell number”.

What about the “expression of DNA repair genes” value [3] of the same molecule?
The value was “Reduction”.

What about the “expression of DNA repair genes” value [4] of the same molecule?
Its value is “Reduction”.

And the “oxygen consumption rate (OCR), a measure” value [5]?
The value was “significantly reduce”.

And the “oxygen consumption rate (OCR), a measure” value [6]?
Its value is “significantly reduce”.

With `Cl.Oc1ccccc1/C=C\c1ccc2ccccc2n1` [Compound 11B_Z_HCl, (Z)-2-(2-(Quinolin-2-yl)vinyl) phenol HCl salt] as the molecule, how does the “cell number, measured by % absorbance” value ([1]; HCl salt) read?
Its value is “did not significantly reduce cell number”.

And the “cell number, measured by % absorbance” value ([2]; HCl salt)?
The value was “did not significantly reduce cell number”.

And the “expression of DNA repair genes” value [3]?
The value was “Reduction”.

And the “expression of DNA repair genes” value [4]?
Its value is “Reduction”.

What about the “oxygen consumption rate (OCR), a measure” value ([5]; HCl salt) of the same molecule?
The value was “Significantly Reduces”.

What about the “oxygen consumption rate (OCR), a measure” value ([6]; HCl salt) of the same molecule?
Its value is “Significantly Reduces”.
